Data published in patent US11028127B2, “Peptides capable of reactivating p53 mutants” (Yeda Research and Development Co. Ltd., priority 2013, dated 2021).
Where no end group is shown, it is not given here. The star is where a group is joined. Myristoyl = CCCCCCCCCCCCCC(=O)*

Test system: Mut-p53
Test: Total activity score over combined assays (Table 8)
Set-up: scale not given here
Settings: for Activity Score: Table 10 summary of activity of the peptides tested; for AS (Activity Score): total score of Table 7; for PCR, activity score / Conformation, activity score: Table 8; for PCR, activity score: head span not shown; for Conformation, activity score: the 14 score columns c4-c17 stand under the heads Conformation, DNA binding, Viability, PCR
Excerpt: Several alternative and complementary methods to screen lead peptide candidates for conformational and functional effects on Mut-p53 were employed. For increased penetration of peptide across cell membranes each peptide contains 3-6 Arginine residues either as part of its sequence or added either at its N-terminus or its C-terminus. […] In-vitro based assays for evaluation were first performed, such as ELISA for assessment of p53 conformation and sequence-specific DNA binding of p53.

Substance	Activity Score	AS (Activity Score)	PCR, activity score	Conformation, activity score
pCAP48 (IPMNFTSHSLRQ)	13	13	–	–
pCAP206 (RRRSHSQENVDQDTDE)	19	–	6	–
pCAP208 (RRIRSGGKDHAWTPLHENH)	0	–	–	–
pCAP309 (HPHVILPRIRIRIR)	0	–	–	–
pCAP149 (FPGHTIHRRRRRRRRRRR)	13	13	–	–
pCAP289 (RHNHIRPDNQ)	6	–	–	–
pCAP94 (LRFIDYP)	4	4	–	–
pCAP255 (DPEPPRYLPPPPERR)	0	–	–	–
pCAP98 (HSSGHNFVLVRQ)	2	2	–	–
pCAP215 (RRDTFDIRILMAF)	0	–	–	–
pCAP134 (IRILMFLIGCGRRRRRRRR)	40	40	–	–
pCAP311 (EIHTIHLLPERR)	0	–	–	–
pCAP99 (GLHLFTTDRQGW)	7	7	–	–
pCAP218 (RREVTELHHTHEDRR)	0	–	–	–
pCAP114 (AISHHTR)	0	0	–	–
pCAP225 (HTIHSISDFPEPPDRRRR)	3	–	–	–
pCAP254 (NHFDYDTIELDTAGEYSRRR)	0	–	–	–
pCAP322 (RRIRDPQIK(Myristoyl)LEIHFSHID; not fully specified; printed as RRIRDPQIK-myrLEIHFSHID)	0	–	–	–
pCAP140 (TDSHSHHRRRRRRRRRRR)	6	6	–	–
pCAP292 (YDELYQKEDPHRRR)	0	–	–	–
pCAP81 (VRCIFRGIWVRL)	2	2	–	–
pCAP320 (EPSHPRSRYPRTF)	0	–	–	–
pCAP24 (LRCLLLLIGRVG)	23	23	–	–

Substance	Activity Score	AS (Activity Score)	PCR, activity score	Conformation, activity score
pCAP153 (YWSAPQPATRRRRRRRRRRR)	6	6	–	–
pCAP55 (FLLPEPDENTRW)	8	8	–	–
pCAP86 (FGSHHEL)	0	0	–	–
pCAP154 (LRCLLLLIGRVGRKKRRQRR)	57	57	–	–
pCAP60 (SFILFIRRGRLG)	40	40	–	–
pCAP77 (SEYLCSSLDAAG)	0	0	–	–
pCAP146 (HANLHHTRRRRRRRRRRR)	11	11	–	–
pCAP231 (HRTQSTLILFIRRGRET)	9	–	–	–
pCAP317 (RRDIHTIHPFYQ)	43	–	3	5
pCAP279 (RDTIERPEIRR)	6	–	–	–
pCAP307 (HDPRIIRIR)	2	–	–	–
pCAP109 (GPIKHHLQHH)	4	4	–	–
pCAP169 (SFILI)	0	0	–	–
pCAP286 (HDFHDYLERR)	4	–	–	–
pCAP178 (RRVI)	0	0	–	–
pCAP82 (QIPHRSSTALQL)	6	6	–	–
pCAP278 (RRYDTVIDDIEYRR)	6	–	–	–
pCAP325 (Myristoyl-RRIRDPRILLLHFD)	61	–	6	4
pCAP141 (SWQALALYAAGWRRRRRR)	29	29	–	–
pCAP234 (HRTGHYTRCRQRCRSRSHNRH)	2	–	–	–
pCAP143 (IPMNFTSHSLRQRRRRRRRRR)	6	6	–	–
pCAP68 (YRRLLIGMMWRRRRRRRRRRR)	39	39	–	–
pCAP88 (SYQTMQP)	6	6	–	–

Substance	Activity Score	AS (Activity Score)	PCR, activity score	Conformation, activity score
pCAP36 (YPTQGHLR)	39	39	–	–
pCAP295 (LDLYHPRERR)	3	–	–	–
pCAP139 (MHPPDWYHHTPKRRRRRR)	12	12	–	–
pCAP270 (SPHPPY)	0	–	–	–
pCAP261 (RRRQPLPSAPENEE)	5	–	–	–
pCAP71 (WTLSNYLGGRKKRRQRRRR)	2	2	–	–
pCAP115 (HPHNHTVHNVVY)	3	3	–	–
pCAP16 (LPNPPERHH)	24	24	–	–
pCAP10 (VAEFAQSIQSRIVEWKERLD)	8	8	–	–
pCAP42 (MHPPDWYHHTPKH)	29	29	–	–
pCAP41 (WHHRQQIPRPLE)	2	2	–	–
pCAP59 (FLIRRSG)	9	9	–	–
pCAP116 (KHHPFDHRLGNQ)	0	0	–	–
pCAP252 (RRVILRSYDGGHSTPHPD)	0	–	–	–
pCAP5 (LEVIYMI)	2	2	–	–
pCAP120 (SIRTLGRFLIIRV)	3	3	–	–
pCAP66 (THFSHHLKGGGRRQRRRP)	2	2	–	–
pCAP26 (DEFHSFYTARQTG)	0	0	–	–
pCAP101 (IRFILIR)	3	3	–	–
pCAP232 (RSRSSHLRDHERTHT)	0	–	–	–
pCAP56 (ATPFHQT)	5	5	–	–
pCAP241 (LIGLSTSPRPRIIR)	0	–	–	–
pCAP103 (LRRQLQL)	3	3	–	–

Substance	Activity Score	AS (Activity Score)	PCR, activity score	Conformation, activity score
pCAP258 (FLIGPDRLIRSR)	23	–	4	–
pCAP306 (Myristoyl-RLIRIRILM)	6	–	–	–
pCAP138 (YPTQGHLRRRRRRRRRRRR)	11	11	–	–
pCAP133 (SLLIGFGIIRSRRRRRRRR)	10	10	–	–
pCAP53 (ILVIIQRIM)	3	3	–	–
pCAP247 (RRITEIRGRTGKTTLTYIED)	6	–	–	–
pCAP308 (Myristoyl-RRICRFIRICRVR; cysteine pairing not given here)	40	–	6	–
pCAP128 (CILRLWW)	19	19	–	–
pCAP297 (HDFDPRYRDRR)	0	–	–	–
pCAP222 (RYEENNGVNPPVQVFESRTR)	4	–	–	–
pCAP92 (FPHLVSSLTT)	7	7	–	–
pCAP265 (EEPDRQPSGKRGGRKRRSR)	3	–	–	–
pCAP266 (HHRLSYFIVRRHSTHASR)	2	–	–	–
pCAP158 (SFILFIRRGRLGRGDR)	18	18	–	–
pCAP166 (KPPER)	0	0	–	–
pCAP304 (Myristoyl-RRIRILMFLIGCGRV)	0	–	–	–
pCAP263 (YDDEHNHHPHHSTHRRR)	0	–	–	–
pCAP249 (Myristoyl-DERTGKTRRYIDTRDIRR)	6	–	–	–
pCAP18 (SHQVHTHHNN)	6	6	–	–
pCAP294 (FKPERFPQNDRRR)	0	–	–	–
pCAP228 (DEDAAHSTGHPHNSQHRRRR)	3	–	–	–
